We go through 10 compounds from US20240252488A1 (KOREA RESEARCH INSTITUTE OF CHEMICAL TECHNOLOGY, priority 2020, published 2024).

One may read the pKd as −log10 of the Kd, conventionally taken in molar units.

pKd: −log10 of the molar value.

Experiment [1] concerns the target T1, MLKL (Homo sapiens, UniProt Q8NB16).
T1 sequence (Q8NB16 1-471): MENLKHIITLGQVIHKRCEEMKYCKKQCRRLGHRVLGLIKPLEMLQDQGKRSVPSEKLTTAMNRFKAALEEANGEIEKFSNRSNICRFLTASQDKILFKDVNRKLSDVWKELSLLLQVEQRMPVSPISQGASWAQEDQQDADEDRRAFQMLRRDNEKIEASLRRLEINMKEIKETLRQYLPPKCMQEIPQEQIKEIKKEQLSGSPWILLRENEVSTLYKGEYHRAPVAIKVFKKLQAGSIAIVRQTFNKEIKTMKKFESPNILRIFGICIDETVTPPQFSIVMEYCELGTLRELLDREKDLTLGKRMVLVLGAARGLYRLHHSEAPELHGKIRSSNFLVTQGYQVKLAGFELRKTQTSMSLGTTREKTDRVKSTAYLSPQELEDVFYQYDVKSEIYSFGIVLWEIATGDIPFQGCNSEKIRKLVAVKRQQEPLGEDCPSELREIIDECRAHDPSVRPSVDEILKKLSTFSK
The experiment is described as follows: Measurement of binding affinity with MLKL receptor (competitive binding assay, Kd). More on the design: made in house; host or cells: HEK 293 cell line (T7 phage in E. coli BL21-derived host is also described). The method, boiled down: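 HEK 293-expressed, DNA-tagged MLKL; ligand beads blocked with biotin and SeaBlock/1% BSA/0.05% Tween 20/1 mM DTT buffer. Cpd from 111× DMSO stock, 0.9% DMSO final. Eluted kinase by qPCR → Kd.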

For a further experiment, the system named is FADD−/− Jurkat cells. The experiment is described as follows: Necroptosis inhibition assay, TNF-α-induced necroptosis (CellTiter-Glo 2.0). It is filed as cell-based, human. Particulars: TNF-α 15 ng/mL; for Necroptosis inhibition assay (Rescue %) 10 μM: compound 10 μM; for Necroptosis inhibition assay (Rescue %) 1 μM: compound 1 μM. The procedure, abridged: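 Necroptosis induced by 15 ng/mL TNF-α (final) for 20–24 h at 37 °C, after a 30 min room-temperature pretreatment of FADD-deficient Jurkat cells with 0.1, 1 or 10 μM compound. ATP-based luminescence gave viability, from which inhibition rate and cytotoxicity were derived.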

Experiment [2] has as its target T1, MLKL. The experiment is described as follows: MLKL degradation assay in HepG2 cell line (western blot). Type of experiment: cell-based. The settings on record: cell line not given; for Degradation assay (Degradation %) 1 μM: compound 1 μM; for Degradation assay (Degradation %) 10 μM: compound 10 μM. More on the design: endogenous in cells; host or cells: HepG2 or HaCaT. The method, boiled down: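 Western blot chemiluminescence of MLKL in equal-protein lysates (10-15 μg, BCA-adjusted). Before lysis, HepG2 cells were exposed to 1 or 10 μM (final) test compound for 20-24 h at 37 °C.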
A general note: Immunoblotting shows a protein as a band on a membrane.

The compound `Nc1ncc(-c2cnn(C3CCN(CCC4CCN(C(=O)COc5ccc6nnn(C7CCC(=O)NC7=O)c(=O)c6c5)CC4)CC3)c2)nc1C(=O)O[C@@H](C(=O)Nc1ccc(F)cc1)c1ccccc1` (stereo partly drawn) [TDH-330, (R)-2-((4-fluorophenyl)amino)-2-oxo-1-phenylethyl 3-amino-6-(1-(1-(2-(1-(2-((3-(2,6-dioxopiperidin-3-yl)-4-oxo-3,4-dihydrobenzo[d][1,2,3]triazin-6-yl)oxy)acetyl)piperidin-4-yl)ethyl)piperidin-4-yl)-1H-pyrazol-4-yl)pyrazine-2-carboxylate] had a pKd at MLKL [1] of 9.19. Also, the “Necroptosis inhibition assay (Rescue %) 1.1 μM” value in the experiment on FADD−/− Jurkat cells (compound 1.1 µM) is listed as 54.05 (1.1µM) %. In the experiment with FADD−/− Jurkat cells, the “Necroptosis inhibition assay (Rescue %) 10 μM” value stood at 51.95%. At MLKL [2], the “Degradation assay (Degradation %) 1 μM” value is listed as 59.64% and the “Degradation assay (Degradation %) 10 μM” value amounted to 49.16%.

As for `Nc1ncc(-c2cnn(C3CCN(CC4CCN(c5ccc6c(c5)C(=O)N(C5CCC(=O)NC5=O)C6=O)CC4)CC3)c2)nc1C(=O)O[C@@H](C(=O)Nc1ccc(F)cc1)c1ccccc1` (stereo partly drawn) [TDH-150, (R)-2-((4-fluorophenyl)amino)-2-oxo-1-phenylethyl 3-amino-6-(1-(1-((1-(2-(2,6-dioxopiperidin-3-yl)-1,3-dioxoisoindolin-5-yl)piperidin-4-yl)methyl)piperidin-4-yl)-1H-pyrazol-4-yl)pyrazine-2-carboxylate], the pKd at MLKL [1] is 7.37. Further, in the experiment with FADD−/− Jurkat cells, the “Necroptosis inhibition assay (Rescue %) 1 μM” value amounted to 53.91% and the “Necroptosis inhibition assay (Rescue %) 10 μM” value was 39.57%. In addition, on MLKL [2], the “Degradation assay (Degradation %) 1 μM” value came out at 66.97% and the “Degradation assay (Degradation %) 10 μM” value is recorded as 53.7%.

In turn, `Nc1ncc(-c2cnn(C3CCN(C[C@H]4CC[C@H](CNC(=O)COc5cccc6c5C(=O)N(C5CCC(=O)NC5=O)C6=O)CC4)CC3)c2)nc1C(=O)O[C@@H](C(=O)Nc1ccc(F)cc1)c1ccccc1` (stereo partly drawn) [TDH-345, (R)-2-((4-fluorophenyl)amino)-2-oxo-1-phenylethyl 3-amino-6-(1-(1-(((1r,4r)-4-((2-((2-(2,6-dioxopiperidin-3-yl)-1,3-dioxoisoindolin-4-yl)oxy)acetamido)methyl)cyclohexyl)methyl)piperidin-4-yl)-1H-pyrazol-4-yl)pyrazine-2-carboxylate] showed a pKd on MLKL [1] of 8.82. In the experiment with FADD−/− Jurkat cells, the “Necroptosis inhibition assay (Rescue %) 1 μM” value is on record as 29.41% and the “Necroptosis inhibition assay (Rescue %) 10 μM” value stood at 19.45%. On MLKL [2], the “Degradation assay (Degradation %) 1 μM” value stood at 87.91% and the “Degradation assay (Degradation %) 10 μM” value turned out to be 80.66%.

For `Nc1ncc(-c2cnn(C3CCN(CCCN4CCN(C(=O)C5CCN(c6ccc7c(c6)C(=O)N(C6CCC(=O)NC6=O)C7=O)CC5)CC4)CC3)c2)nc1C(=O)OC(C(=O)Nc1ccc(F)cc1)c1ccccc1` (stereo not shown) [TDH-240, 2-((4-fluorophenyl)amino)-2-oxo-1-phenylethyl 3-amino-6-(1-(1-(3-(4-(1-(2-(2,6-dioxopiperidin-3-yl)-1,3-dioxoisoindolin-5-yl)piperidine-4-carbonyl)piperazin-1-yl)propyl)piperidin-4-yl)-1H-pyrazol-4-yl)pyrazine-2-carboxylate], the pKd at MLKL [1] was 8.38. In the experiment with FADD−/− Jurkat cells, the “Necroptosis inhibition assay (Rescue %) 1 μM” value turned out to be 43.23% and the “Necroptosis inhibition assay (Rescue %) 10 μM” value was determined as 14.03%. Besides, at MLKL [2], the “Degradation assay (Degradation %) 1 μM” value is recorded as 88.47%.

Take `Nc1ncc(-c2cnn(C3CCN(CCCCCCNC(=O)CNc4ccc5c(c4)C(=O)N(C4CCC(=O)NC4=O)C5=O)CC3)c2)nc1C(=O)O[C@@H](C(=O)Nc1ccc(F)cc1)c1ccccc1` (stereo partly drawn) [TDH-132, (R)-2-((4-fluorophenyl)amino)-2-oxo-1-phenylethyl 3-amino-6-(1-(1-(6-(2-((2-(2,6-dioxopiperidin-3-yl)-1,3-dioxoisoindolin-5-yl)amino)acetamido)hexyl)piperidin-4-yl)-1H-pyrazol-4-yl)pyrazine-2-carboxylate]: the negative-log Kd (pKd) at MLKL [1] was 8.92. Further, in the experiment with FADD−/− Jurkat cells, the “Necroptosis inhibition assay (Rescue %) 1 μM” value was found to be 75.06% and the “Necroptosis inhibition assay (Rescue %) 10 μM” value came to 54.76%. In addition, on MLKL [2], the “Degradation assay (Degradation %) 1 μM” value came to 40.32% and the “Degradation assay (Degradation %) 10 μM” value is on record as 50.03%.

On MLKL [1], `Nc1ncc(-c2cnn(C3CCN(CCCN4CCN(c5ccc6c(c5)C(=O)N(C5CCC(=O)NC5=O)C6=O)CC4)CC3)c2)nc1C(=O)N[C@@H](C(=O)Nc1ccc(F)cc1)c1ccccc1` (stereo partly drawn) [TDH-491, 3-amino-6-(1-(1-(3-(4-(2-(2,6-dioxopiperidin-3-yl)-1,3-dioxoisoindolin-5-yl)piperazin-1-yl)propyl)piperidin-4-yl)-1H-pyrazol-4-yl)-N-((R)-2-((4-fluorophenyl)amino)-2-oxo-1-phenylethyl)pyrazine-2-carboxamide] had a pKd of 7.11. For the same compound, in the experiment with FADD−/− Jurkat cells (FADD−/− Jurkat cells), the “Necroptosis inhibition assay (Rescue %) 1 μM” value was 0.07% and the “Necroptosis inhibition assay (Rescue %) 10 μM” value was −24.78%. On MLKL [2], the “Degradation assay (Degradation %) 1 μM” value stood at 19.04% and the “Degradation assay (Degradation %) 10 μM” value is given as 14.39%.

`Nc1ncc(-c2ccc(N3CCN(CC4CCN(C(=O)CNc5ccc6c(c5)C(=O)N(C5CCC(=O)NC5=O)C6=O)CC4)CC3)nc2)nc1C(=O)OC(C(=O)Nc1ccc(F)cc1)c1ccccc1` (stereo not shown) [TDH-233, 2-((4-fluorophenyl)amino)-2-oxo-1-phenylethyl 3-amino-6-(6-(4-((1-((2-(2,6-dioxopiperidin-3-yl)-1,3-dioxoisoindolin-5-yl)glycyl)piperidin-4-yl)methyl)piperazin-1-yl)pyridin-3-yl)pyrazine-2-carboxylate]: the negative logarithm of the Kd (pKd) on MLKL [1] was 6.80. Also, in the experiment with FADD−/− Jurkat cells, the “Necroptosis inhibition assay (Rescue %) 1 μM” value is 23.37% and the “Necroptosis inhibition assay (Rescue %) 10 μM” value came to 4.71%. Besides, on MLKL [2], the “Degradation assay (Degradation %) 1 μM” value came out at 15.59% and the “Degradation assay (Degradation %) 10 μM” value stood at 16.2%.

For `Nc1ncc(-c2cnn(C3CCN(CC4CCN(C(=O)CNc5ccc6nnn(C7CCC(=O)NC7=O)c(=O)c6c5)CC4)CC3)c2)nc1C(=O)O[C@@H](C(=O)Nc1ccc(F)cc1)c1ccccc1` (stereo partly drawn) [TDH-152, (R)-2-((4-fluorophenyl)amino)-2-oxo-1-phenylethyl 3-amino-6-(1-(1-((1-((3-(2,6-dioxopiperidin-3-yl)-4-oxo-3,4-dihydrobenzo[d][1,2,3]triazin-6-yl)glycyl)piperidin-4-yl)methyl)piperidin-4-yl)-1H-pyrazol-4-yl)pyrazine-2-carboxylate], the negative logarithm of the Kd (pKd) at MLKL [1] was 8.57. Moreover, in the experiment on FADD−/− Jurkat cells, the “Necroptosis inhibition assay (Rescue %) 1 μM” value was found to be 63.2% and the “Necroptosis inhibition assay (Rescue %) 10 μM” value came out at 41.21%. In addition, on MLKL [2], the “Degradation assay (Degradation %) 1 μM” value amounted to 51.96% and the “Degradation assay (Degradation %) 10 μM” value was determined as 35.05%.

On MLKL [1], `Nc1ncc(-c2cnn(C3CCN(CCCN4CCN(C(=O)CCc5ccc6c(c5)C(=O)N(C5CCC(=O)NC5=O)C6=O)CC4)CC3)c2)nc1C(=O)O[C@@H](C(=O)Nc1ccc(F)cc1)c1ccccc1` (stereo partly drawn) [TDH-383, (R)-2-((4-fluorophenyl)amino)-2-oxo-1-phenylethyl 3-amino-6-(1-(1-(3-(4-(3-(2-(2,6-dioxopiperidin-3-yl)-1,3-dioxoisoindolin-5-yl)propanoyl)piperazin-1-yl)propyl)piperidin-4-yl)-1H-pyrazol-4-yl)pyrazine-2-carboxylate] showed a negative-log Kd (pKd) of 9.38. In the experiment on FADD−/− Jurkat cells, the “Necroptosis inhibition assay (Rescue %) 1 μM” value was determined as 46.33% and the “Necroptosis inhibition assay (Rescue %) 10 μM” value came out at 25.19%. Moreover, at MLKL [2], the “Degradation assay (Degradation %) 1 μM” value is on record as 79.04% and the “Degradation assay (Degradation %) 10 μM” value is recorded as 81.95%.

On MLKL [1], `Nc1ncc(-c2cnn(C3CCN(C(=O)CCC4CCN(C(=O)CC5CCN(c6cccc7c6C(=O)N(C6CCC(=O)NC6=O)C7=O)CC5)CC4)CC3)c2)nc1C(=O)O[C@@H](C(=O)Nc1ccc(F)cc1)c1ccccc1` (stereo partly drawn) [TDH-429, (R)-2-((4-fluorophenyl)amino)-2-oxo-1-phenylethyl 3-amino-6-(1-(1-(3-(1-(2-(1-(2-(2,6-dioxopiperidin-3-yl)-1,3-dioxoisoindolin-4-yl)piperidin-4-yl)acetyl)piperidin-4-yl)propanoyl)piperidin-4-yl)-1H-pyrazol-4-yl)pyrazine-2-carboxylate] showed a negative-log Kd (pKd) of 8.64. Moreover, in the experiment on FADD−/− Jurkat cells (FADD−/− Jurkat cells), the “Necroptosis inhibition assay (Rescue %) 1 μM” value turned out to be 18.34% and the “Necroptosis inhibition assay (Rescue %) 10 μM” value is reported as 11.03%. Besides, at MLKL [2], the “Degradation assay (Degradation %) 1 μM” value is recorded as 77.13% and the “Degradation assay (Degradation %) 10 μM” value is 63.72%.
